This is an account of results in ChEMBL document CHEMBL1671782, “Cationic surfactants derived from lysine: effects of their structure and charge type on antimicrobial and hemolytic activities” (J Med Chem, 2011).

The structures appear in SMILES notation. Converted amounts (≈) assume the structure as drawn. The source made the active and inactive calls. The calls are words filed in the database; no cut-off is given here. Peptide text beside a SMILES is read from it. * marks the point of attachment. Lauroyl = CCCCCCCCCCCC(=O)*

By HC50 is commonly meant the concentration giving 50% haemolysis. As a reminder, the pKa is the pH at which an ionisable group is half protonated. Low values mean a stronger acid or weaker base, high ones a weaker acid or stronger base.

The test system of data set [1] is Bacillus subtilis. The data set can be described thus: microbe, parasite or virus in culture. As to conditions: ATCC 6633, 24 h.
Description: Antimicrobial activity against Bacillus subtilis ATCC 6633 assessed as inhibition of visible growth after 24 hrs at pH 7.4
For data set [2], the system named is Klebsiella pneumoniae. The experiment in a line: Antimicrobial activity against Klebsiella pneumoniae ATCC 9721 at 250 ug/ml at pH 7.4. The class given is functional, organism-based.
A short description of data set [3]: in vitro. As to conditions: human, erythrocytes.
Description: Toxicity in human erythrocytes assessed as hemolytic activity measured after 10 mins shaking
Data set [4] relates to Candida albicans. The data set can be described thus: microbe, parasite or virus in culture. As to conditions: ATCC 10231, 24 h.
Description: Antimicrobial activity against Candida albicans ATCC 10231 assessed as inhibition of visible growth after 24 hrs at pH 7.4
Data set [5] has as its system Micrococcus luteus. The experiment in a line: microbe, parasite or virus in culture. The settings on record: ATCC 9341, 24 h.
Description: Antimicrobial activity against Micrococcus luteus ATCC 9341 assessed as inhibition of visible growth after 24 hrs at pH 7.4
Data set [6] deals with Staphylococcus epidermidis. The experiment in a line: microbe, parasite or virus in culture. As to conditions: ATCC 155-1, 24 h.
Description: Antimicrobial activity against Staphylococcus epidermidis ATCC 155-1 assessed as inhibition of visible growth after 24 hrs at pH 7.4
The subject of data set [7] is Staphylococcus aureus. The data set can be described thus: microbe, parasite or virus in culture. The settings on record: ATCC 25178, 24 h.
Description: Antimicrobial activity against Staphylococcus aureus ATCC 25178 assessed as inhibition of visible growth after 24 hrs at pH 7.4
Data set [8] concerns Escherichia coli. The experiment in a line: microbe, parasite or virus in culture. As to conditions: ATCC 27325, 24 h.
Description: (§1) Antimicrobial activity against Escherichia coli ATCC 27325 assessed as inhibition of visible growth after 24 hrs at pH 7.4
In data set [9] the test system is Klebsiella pneumoniae. The experiment in a line: microbe, parasite or virus in culture. The settings on record: ATCC 9721, 24 h.
Description: Antimicrobial activity against Klebsiella pneumoniae ATCC 9721 assessed as inhibition of visible growth after 24 hrs at pH 7.4
In data set [10] the test system is Pseudomonas aeruginosa. The data set can be described thus: microbe, parasite or virus in culture. The settings on record: ATCC 9721, 24 h.
Description: Antimicrobial activity against Pseudomonas aeruginosa ATCC 9721 assessed as inhibition of visible growth after 24 hrs at pH 7.4
Data set [11] is described as follows: physchem.
Description: Dissociation constant, pKa of the compound
The subject of data set [12] is Staphylococcus aureus. The experiment in a line: Antimicrobial activity against Staphylococcus aureus ATCC 25178 at 250 ug/ml at pH 7.4. The class given is functional, organism-based.
Data set [13] relates to Micrococcus luteus. The experiment in a line: Antimicrobial activity against Micrococcus luteus ATCC 9341 at 250 ug/ml at pH 7.4. The class given is functional, organism-based.
Data set [14] concerns Escherichia coli. The settings on record: ATCC 27325.
Description: as §1

For `CCCCCCCCCCCC(=O)NCCCC[C@@H](C(=O)NCCCCCCNC(=O)[C@H](CCCCNC(=O)CCCCCCCCCCC)[N+](C)(C)C)[N+](C)(C)C`, the MIC stood at 16 µM in data set [1]; 67 µM in [4]; 67 µM in data set [5]; 16 µM in data set [6]; 67 µM in data set [7]. In data set [2], the result was inactive. Moreover, the HC50 at 10 min in data set [3] worked out at 11 µM.
On to `CCCCCCCCCCCC(=O)N[C@@H](CCCNC(=N)N)C(=O)N[C@@H](CCCCN)C(=O)OC` (Lauroyl-Arg-Lys-OMe), for which the MIC amounted to 218 µM (≈ 109 µg/mL) in data set [8]; 28 µM (≈ 14 µg/mL) in data set [1]; 218 µM (≈ 109 µg/mL) in [4]; 28 µM (≈ 14 µg/mL) in data set [5]; 218 µM (≈ 109 µg/mL) in data set [9]; 218 µM (≈ 109 µg/mL) in data set [6]. Moreover, the MIC in data set [7] stood at 54 µM (≈ 26.9 µg/mL); in [10], 218 µM (≈ 109 µg/mL). For the same compound, in [3], the HC50 at 10 min was determined as 1350 µM. For the same compound, the pKa in data set [11] is 10.
`CCCCCCCCCCCC(=O)NCCCC[C@H](N)C(=O)NCCCCNCCCNC(=O)[C@@H](N)CCCCNC(=O)CCCCCCCCCCC`: the MIC in data set [1] came to 142 µM (≈ 109 µg/mL); in [4], 285 µM (≈ 218 µg/mL); in data set [5], 142 µM (≈ 109 µg/mL); in [6] it was 142 µM (≈ 109 µg/mL); in data set [10], 142 µM (≈ 109 µg/mL). Further, the outcome in data set [2] and in data set [12] was inactive. This compound returned an HC50 at 10 min in [3] of 12 µM.
On to `CCCCCCCCCCCC(=O)NCCCC[C@H](N)C(=O)NCCCCCCNC(=O)[C@@H](N)CCCCNC(=O)CCCCCCCCCCC`, for which the result in data set [13], in data set [2] and in data set [12] was inactive. Further, the MIC amounted to 308 µM (≈ 227 µg/mL) in data set [1] and 38 µM (≈ 28 µg/mL) in [6]. The same compound gave an HC50 at 10 min in [3] of 116 µM.
Turning to `CCCCCCCCCCCC(=O)NCCCC[C@H](N)C(=O)OC`, the MIC in [8] amounted to 166 µM (≈ 56.9 µg/mL); in data set [1], 331 µM (≈ 113 µg/mL); in data set [4], 166 µM (≈ 56.9 µg/mL); in data set [5], 331 µM (≈ 113 µg/mL); in data set [9], 331 µM (≈ 113 µg/mL); in [6], 166 µM (≈ 56.9 µg/mL). In addition, the MIC in data set [7] came out at 331 µM (≈ 113 µg/mL). In addition, the HC50 at 10 min in data set [3] amounted to 391 µM. In [11], the pKa came out at 10.
Consider `CCCCCCCCCCCC(=O)N[C@@H](CCCCN)C(=O)NCCCCCCNC(=O)[C@H](CCCCN)NC(=O)CCCCCCCCCCC`, for which the MIC came to 308 µM (≈ 227 µg/mL) in data set [1], 154 µM (≈ 114 µg/mL) in [5], 77 µM (≈ 56.8 µg/mL) in [6] and 154 µM (≈ 114 µg/mL) in [7]. Besides, the result in data set [2] and in data set [14] was inactive. The same compound registered an HC50 at 10 min in data set [3] of 475 µM.
Turning to `CCCCCCCCCCCC(=O)N[C@@H](CCCNC(=N)N)C(=O)NCCCC[C@H](N)C(=O)OC`, the MIC was 218 µM (≈ 109 µg/mL) in data set [1]; 436 µM (≈ 217 µg/mL) in data set [4]; 436 µM (≈ 217 µg/mL) in data set [5]; 436 µM (≈ 217 µg/mL) in [6]; 436 µM (≈ 217 µg/mL) in data set [7]. Also, in [2], the result was inactive. In data set [3], this compound had an HC50 at 10 min of 791 µM. The same compound gave a pKa in [11] of 10.
For `CCCCCCCCCCCC(=O)N[C@@H](CCCCN)C(=O)OC`, the MIC in data set [8] worked out at 331 µM (≈ 113 µg/mL); in [1], 331 µM (≈ 113 µg/mL); in data set [4], 166 µM (≈ 56.9 µg/mL); in [5], 83 µM (≈ 28.4 µg/mL); in data set [9], 331 µM (≈ 113 µg/mL); in data set [6], 83 µM (≈ 28.4 µg/mL). Also, the MIC in [7] worked out at 166 µM (≈ 56.9 µg/mL); in data set [10] it was 331 µM (≈ 113 µg/mL). In data set [3], this compound yielded an HC50 at 10 min of 199 µM. This compound registered a pKa in data set [11] of 10.
